Results on 2 compounds are retold here after publication PMC8619920, “New Polyesterified Ursane Derivatives from Leaves of Maesa membranacea and Their Cytotoxic Activity” (Molecules, 2021).

Broadly, the viability is a per cent measure of how many cells are alive, often set against a control. The IC50 is the point on the concentration scale where inhibition reaches its midpoint.

A short description of series [1]: Cytotoxicity, LDH assay, HTB140 cells. Particulars: human, HTB140 melanoma cells, 24 h, mean ± SD of three, read-out: Cell viability HTB140. Format: cell-based, human. The protocol:
(§1) Cytotoxic activity was tested on human cancer and normal cells, grouped in three panels, namely: prostate, skin and gastrointestinal. The prostate panel consisted of prostate cancer cell lines Du145 (ATCC HTB-81) and PC3 (ATCC CRL-1435), and prostate epithelial cells PNT-2 (ECACC 95012613). Melanoma cell lines A375 (ATCC CRL-1619) and HTB140 (ATCC Hs 294T) together with skin keratinocytes HaCaT (obtained as a kind gift of prof. Marta Michalik, Department of Cell Biology, Jagiellonian University, Kraków, Poland) were included into the skin panel. The gastrointestinal panel of cells comprised colon cancer cell lines Caco-2 (ATCC HTB-37) and HT29 (ATCC HTB-38). Du145 cells were grown in Modified Eagle’s Medium with low (1.0 g/L) glucose concentration, HT29, PC3 and PNT-2 cells in Dulbecco’s Modified Eagle’s Media: F12 HAM Nutrient Mixture, Caco-2 in Modified Eagle’s Medium with NEAA (no-essential amino acids) while melanoma cells and keratinocytes were maintained in Modified Eagle’s Medium with high (4.5 g/L) glucose concentration. The culture media (all supplied by Sigma-Aldrich Co.; St. Louis, MO, USA) contained antibiotics and 10% fetal bovine serum (FBS). All cultures were maintained at 37 °C, in a humidified, 5% CO2 containing, atmosphere.
(§2) The examined triterpenes were diluted in the culture media from freshly made stock solutions in MeOH (10 mg/mL) to the working concentrations (from 0 to 100 μg/mL).
(§3) Cell viability was determined as it was described previously. Cells suspended in the nutrient medium were transferred into 96-well microtiter plates (density 1.5 × 10^4 per well), and preincubated for 24 h (37 °C, 5% CO2). Then, the culture medium was replaced with the medium containing different concentrations of 1 or 2 (1–100 μg/mL). After 24 h of incubation, viability of the cells was determined using colorimetric lactate dehydrogenase (LDH) assay, in comparison to the controls to which corresponding aliquots of MeOH diluted with culture media were added. Cells grown in the medium without the tested compounds were used as control I (negative) and the positive control (control II) was obtained by incubation of the cells in the medium containing 1% Triton X-100. LDH released from the damaged cells into the cell culture medium was quantified by measuring the absorbance at 490 nm using Synergy II Biotek (BioTek Instruments, Winooski, VT, USA) microplate reader. Cytotoxicities of the examined compounds were calculated as follows: [(absorbance of the tested sample − absorbance of control I)/(absorbance of control II − absorbance of control I)] × 100. Results were means of three independent measurements (± SD). Doxorubicin (Ebewe Pharma GmbH., Unterach, Austria) was used as a reference cytostatic drug. The IC50 values were determined by plotting the percentage viability of the cells versus concentration and the adequate calculations made using AAT Bioquest website program (https://www.aatbio.com/tools/ic50-calculator, accessed on 29 October 2021).

The test system of series [2] is HTB140 human melanoma cells. Description: Cytotoxicity, LDH assay, HTB140 cells. It counts as cell-based. The conditions noted are these: Homo sapiens; 24 h treatment, 5–100 μg/mL. As to the method:
as §1, §2, §3

Series [3] relates to Caco-2 human colon adenocarcinoma cells. Description: Cytotoxicity, LDH assay, Caco-2 cells. It counts as cell-based. The conditions noted are these: 24 h treatment; for IC50: Homo sapiens, Caco-2, 24 h.

Each structure is given as a SMILES string.

Consider `CCC(C)C(=O)OC1C=C2C3C(C)C(C)(O)CC(OC(C)=O)C3(C)CCC2(C)C2(C)CC(OC(C)=O)C3C(C)(C)C(O)C(OC(C)=O)CC3(C)C12` (stereo not drawn) [Compound 1, 2α,6β,22α-triacetoxy-11α-(2-methylbutyryloxy)-urs-12-ene-3α,20β-diol], for which, in series [1], the viability at 24 h, 5 μg/mL is 96.2 ± 1.12%; the viability at 24 h, 20 μg/mL is 87.1 ± 2.09%; the viability at 24 h, 30 μg/mL was 78.9 ± 2.08%; the viability at 24 h, 40 μg/mL is 68.4 ± 2.17%. Also, in series [1], the viability at 24 h, 50 μg/mL was 59.5 ± 1.4% and the viability at 24 h, 100 μg/mL was found to be 46.6 ± 2.09%. In addition, in series [1] (10 μg/mL), the viability at 24 h, 10 μg/mL came out at 93.82 ± 0.73%. For the same compound, the IC50 in series [2] is > 50 µg/mL. In addition, in series [3] (5–100 μg/mL), the “IC50 Caco-2” value was 35.65 µg/mL and the IC50 was 35.7 µg/mL. Also, the IC50 in series [3] (value in brackets, footnote d) is 49.8 µM.

As for `CC(=O)OC1CC2(C)C(C(OC(C)=O)CC3(C)C2C(O)C=C2C4C(C)C(C)(O)CC(OC(C)=O)C4(C)CCC23C)C(C)(C)C1O` (stereo not drawn) [Compound 2, 2α,6β,22α-triacetoxy-urs-12-ene-3α,11α,20β-triol], in series [1], the viability at 24 h, 5 μg/mL was 97.48 ± 0.79%; the viability at 24 h, 20 μg/mL was 96.4 ± 0.83%; the viability at 24 h, 30 μg/mL is 94.3 ± 1.45%; the viability at 24 h, 40 μg/mL came out at 93.7 ± 1.11%. Also, in series [1], the viability at 24 h, 50 μg/mL is 92 ± 1.64% and the viability at 24 h, 100 μg/mL stood at 89.5 ± 1.4%. Further, the IC50 in series [2] is > 100 µg/mL. Moreover, the IC50 in series [3] (5–100 μg/mL) was > 50 µg/mL.
